Laboratory results taken from US10947242B2, “[1,2,4]triazolo[1,5and#8208;A]pyrimidine compounds as PDE2 inhibitors” (Janssen Pharmaceutica NV, priority 2016, dated 2021).
Values joined by “and” are separate entries in the source; they are usually repeats but may differ in a detail not shown here. Identical values can stand only once. Like-named read-outs stand apart in the source and are kept apart here.

Tests used:
[1] = target: T1, Human recombinant PDE2A (hPDE2A) (Homo sapiens, UniProt O00408); assay: In vitro assay PDE2A (SPA, 3H-cGMP hydrolysis); assay type: biochemical; conditions: for IC50: read-out: hPDE2A pIC50 (converted); for Emax: read-out: hPDE2A Emax
T1 construct: His tag (inferred from metal chelate purification); made in house; host or cells: Sf9 insect cells (baculovirus)
T1 sequence (O00408 whole entry): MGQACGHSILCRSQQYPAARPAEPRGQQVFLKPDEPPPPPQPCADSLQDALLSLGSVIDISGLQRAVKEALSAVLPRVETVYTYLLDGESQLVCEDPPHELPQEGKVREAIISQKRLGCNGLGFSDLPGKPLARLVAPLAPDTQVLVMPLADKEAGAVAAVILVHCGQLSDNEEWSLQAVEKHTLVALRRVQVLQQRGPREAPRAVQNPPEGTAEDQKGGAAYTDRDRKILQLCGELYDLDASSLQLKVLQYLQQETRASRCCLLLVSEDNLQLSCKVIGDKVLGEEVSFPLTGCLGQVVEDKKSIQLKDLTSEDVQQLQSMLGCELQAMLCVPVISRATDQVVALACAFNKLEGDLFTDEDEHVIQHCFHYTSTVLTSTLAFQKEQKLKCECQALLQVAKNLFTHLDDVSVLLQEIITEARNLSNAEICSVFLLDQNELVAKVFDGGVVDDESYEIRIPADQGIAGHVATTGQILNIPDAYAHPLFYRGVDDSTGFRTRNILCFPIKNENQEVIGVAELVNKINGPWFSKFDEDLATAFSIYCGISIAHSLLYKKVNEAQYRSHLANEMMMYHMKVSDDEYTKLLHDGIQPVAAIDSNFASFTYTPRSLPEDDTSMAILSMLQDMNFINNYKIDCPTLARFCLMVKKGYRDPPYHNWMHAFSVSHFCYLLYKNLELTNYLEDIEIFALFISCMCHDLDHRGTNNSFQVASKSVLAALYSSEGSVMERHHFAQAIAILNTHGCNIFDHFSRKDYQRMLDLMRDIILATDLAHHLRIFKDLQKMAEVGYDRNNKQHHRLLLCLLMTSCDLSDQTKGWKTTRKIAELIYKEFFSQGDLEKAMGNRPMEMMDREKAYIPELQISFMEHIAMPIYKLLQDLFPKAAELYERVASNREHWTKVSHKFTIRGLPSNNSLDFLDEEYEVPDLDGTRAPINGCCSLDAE

[2] = target: T2, Rat recombinant PDE10A (rPDE10A2) (Rattus norvegicus, UniProt Q9QYJ6); assay: In vitro assay PDE10A, rat clone (SPA, 3H-cAMP hydrolysis); assay type: biochemical; conditions: for IC50: read-out: rPDE10A2 pIC50 (converted)
T2 construct: His tag (inferred from metal chelate purification); made in house; host or cells: Sf9 insect cells (baculovirus)
T2 sequence (Q9QYJ6 1-794): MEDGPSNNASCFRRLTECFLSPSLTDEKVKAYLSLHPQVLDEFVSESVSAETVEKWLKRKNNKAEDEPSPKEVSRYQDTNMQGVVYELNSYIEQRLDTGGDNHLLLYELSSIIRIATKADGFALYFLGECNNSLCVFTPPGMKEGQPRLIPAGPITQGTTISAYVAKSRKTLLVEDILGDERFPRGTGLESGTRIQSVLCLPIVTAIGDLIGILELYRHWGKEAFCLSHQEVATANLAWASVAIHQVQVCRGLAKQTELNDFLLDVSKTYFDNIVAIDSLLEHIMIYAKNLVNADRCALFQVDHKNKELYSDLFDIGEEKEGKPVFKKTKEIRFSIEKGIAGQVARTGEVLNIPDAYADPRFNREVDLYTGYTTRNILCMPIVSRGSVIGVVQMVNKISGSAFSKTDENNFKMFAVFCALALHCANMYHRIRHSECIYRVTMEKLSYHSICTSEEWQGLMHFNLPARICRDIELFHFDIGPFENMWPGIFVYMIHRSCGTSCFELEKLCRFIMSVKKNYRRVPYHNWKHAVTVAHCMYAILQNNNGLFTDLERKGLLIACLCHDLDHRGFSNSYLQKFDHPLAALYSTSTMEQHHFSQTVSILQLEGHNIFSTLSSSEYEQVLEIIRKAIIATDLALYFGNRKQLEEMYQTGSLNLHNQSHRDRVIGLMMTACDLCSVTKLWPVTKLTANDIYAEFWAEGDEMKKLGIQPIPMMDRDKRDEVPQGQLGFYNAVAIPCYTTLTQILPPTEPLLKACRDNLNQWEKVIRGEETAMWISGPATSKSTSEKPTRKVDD
Description: Rat recombinant PDE10A (rPDE10A2) was expressed in Sf9 cells using a recombinant rPDE10A baculovirus construct. Cells were harvested after 48 h of infection and the rPDE10A protein was purified by metal chelate chromatography on Ni-sepharose 6FF. Tested compounds were dissolved and diluted in 100% DMSO to a concentration 100 fold of the final concentration in the assay. Human recombinant PDE10A ([…]) was expressed in Sf9 cells using a recombinant hPDE10A baculovirus that was made and amplified in house. Cells were harvested after 72 h of infection and the hPDE10A protein was purified by metal chelate chromatography on Ni-sepharose. Compound dilutions (0.4 μl) were added in 384 well plates to 20 μl of incubation buffer (50 mM Tris pH 7.8, 8.3 mM MgCl2, 1.7 mM EGTA). 10 μl of rPDE10A or hPDE10A enzyme in incubation buffer was added and the reaction was started by addition of 10 μl substrate to a final concentration of 60 nM cAMP and 0.008 μCi ^3H-cAMP. The reaction was incubated for 60 minutes at room temperature. After incubation, the reaction was stopped with 20 μl of stop solution consisting of 17.8 mg/ml PDE SPA (scintillation proximity assay) beads. After sedimentation of the beads during 30 minutes the radioactivity was measured in a Perkin Elmer Topcount scintillation counter and results were expressed as cpm. For blanc values the enzyme was omitted from the reaction and replaced by incubation buffer. Control values were obtained by addition of a final concentration of 1% DMSO instead of compound. A best fit curve is fitted by a minimum sum of squares method to the plot of % of control value subtracted with blanc value versus compound concentration and the half maximal inhibitory concentration (IC50) value is derived from this curve.

[3] = target: T3, Human recombinant PDE3A (hPDE3A) (Homo sapiens, UniProt Q14432); assay: In vitro assay PDE3A (SPA, 3H-cAMP hydrolysis); assay type: biochemical; conditions: for IC50: hPDE3B pIC50, read-out: pIC50 (converted); for Emax: read-out: hPDE3B Emax, read-out: Emax;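 for all read-outs here: the method names PDE3A and the table heading PDE3B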
T3 construct: purchased Scottish Biomedical; host or cells: Sf9 insect cells
T3 sequence (Q14432 whole entry): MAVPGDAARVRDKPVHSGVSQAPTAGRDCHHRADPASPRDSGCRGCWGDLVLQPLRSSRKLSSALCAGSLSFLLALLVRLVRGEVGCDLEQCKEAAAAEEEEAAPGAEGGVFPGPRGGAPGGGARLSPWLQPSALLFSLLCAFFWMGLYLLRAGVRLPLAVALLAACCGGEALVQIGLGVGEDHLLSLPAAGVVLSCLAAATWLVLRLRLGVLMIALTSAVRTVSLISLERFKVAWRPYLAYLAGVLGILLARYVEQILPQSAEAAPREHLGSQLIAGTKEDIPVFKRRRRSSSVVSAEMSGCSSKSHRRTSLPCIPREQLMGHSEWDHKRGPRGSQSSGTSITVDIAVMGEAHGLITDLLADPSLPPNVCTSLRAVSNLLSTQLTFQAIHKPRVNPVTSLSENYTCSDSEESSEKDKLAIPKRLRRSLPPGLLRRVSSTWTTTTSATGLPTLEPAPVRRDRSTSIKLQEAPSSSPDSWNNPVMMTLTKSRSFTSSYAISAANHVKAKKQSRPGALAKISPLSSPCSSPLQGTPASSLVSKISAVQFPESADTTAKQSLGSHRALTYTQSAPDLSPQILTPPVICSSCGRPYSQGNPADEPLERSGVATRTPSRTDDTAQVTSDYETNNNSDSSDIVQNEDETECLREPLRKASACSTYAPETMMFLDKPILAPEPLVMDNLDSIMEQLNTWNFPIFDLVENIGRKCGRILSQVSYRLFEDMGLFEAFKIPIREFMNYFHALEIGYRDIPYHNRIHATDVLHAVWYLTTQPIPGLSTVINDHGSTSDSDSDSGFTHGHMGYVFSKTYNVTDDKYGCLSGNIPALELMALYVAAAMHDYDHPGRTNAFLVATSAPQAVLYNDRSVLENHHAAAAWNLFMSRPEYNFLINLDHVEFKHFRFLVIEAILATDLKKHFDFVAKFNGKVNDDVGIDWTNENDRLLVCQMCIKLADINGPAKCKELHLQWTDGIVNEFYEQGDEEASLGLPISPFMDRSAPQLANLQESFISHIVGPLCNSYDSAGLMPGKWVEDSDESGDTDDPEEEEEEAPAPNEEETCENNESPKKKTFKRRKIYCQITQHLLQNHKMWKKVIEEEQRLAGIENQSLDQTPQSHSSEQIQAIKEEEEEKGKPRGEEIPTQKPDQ
How it was run: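 Human PDE3A, cloned from brain, as partially purified Sf9 lysate. Substrate 0.4 μM cAMP plus [3H]-cAMP (2.4 μCi/ml final) in 50 mM Tris pH 7.8, 8.3 mM MgCl2, 1.7 mM EGTA, 60 min at room temperature, 1% DMSO final. Hydrolysis read by SPA scintillation counting against no-enzyme blanks and DMSO controls.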

[4] = target: T4, Human recombinant PDE10A (hPDE10A) (Homo sapiens, UniProt Q9Y233); assay: In vitro assay PDE10A, human clone (SPA, 3H-cAMP hydrolysis); assay type: biochemical; conditions: human clone (h), default; for Emax: read-out: hPDE10A2 Emax; for IC50: read-out: hPDE10A2 pIC50 (converted)
T4 construct: His tag (inferred from metal chelate purification); made in house; host or cells: Sf9 insect cells (baculovirus)
T4 sequence (Q9Y233 267-1055): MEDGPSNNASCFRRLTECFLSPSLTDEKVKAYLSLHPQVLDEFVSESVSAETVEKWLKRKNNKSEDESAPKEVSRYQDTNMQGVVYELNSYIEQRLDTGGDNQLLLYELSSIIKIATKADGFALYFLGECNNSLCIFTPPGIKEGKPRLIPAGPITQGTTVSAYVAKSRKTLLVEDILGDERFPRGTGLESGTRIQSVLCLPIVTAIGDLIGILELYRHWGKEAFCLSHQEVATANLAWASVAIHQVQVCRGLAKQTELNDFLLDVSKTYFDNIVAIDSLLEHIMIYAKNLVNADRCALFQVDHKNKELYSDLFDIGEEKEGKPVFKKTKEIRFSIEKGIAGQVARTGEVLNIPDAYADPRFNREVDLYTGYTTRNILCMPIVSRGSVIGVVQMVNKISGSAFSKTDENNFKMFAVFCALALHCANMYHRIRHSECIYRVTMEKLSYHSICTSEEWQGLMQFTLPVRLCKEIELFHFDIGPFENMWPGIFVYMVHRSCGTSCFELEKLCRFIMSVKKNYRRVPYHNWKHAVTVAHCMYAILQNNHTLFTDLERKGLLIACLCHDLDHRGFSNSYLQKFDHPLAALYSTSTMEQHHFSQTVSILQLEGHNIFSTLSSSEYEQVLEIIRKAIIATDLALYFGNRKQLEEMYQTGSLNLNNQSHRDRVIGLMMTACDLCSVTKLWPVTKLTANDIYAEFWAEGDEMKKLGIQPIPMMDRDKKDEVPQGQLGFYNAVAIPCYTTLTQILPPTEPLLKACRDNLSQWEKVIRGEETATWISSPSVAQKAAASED
How it was run: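 Human recombinant PDE10A was expressed in Sf9 cells via baculovirus and incubated with compound in 50 mM Tris pH 7.8, 8.3 mM MgCl2, 1.7 mM EGTA. Substrate was 60 nM cAMP plus 0.008 μCi 3H-cAMP for 60 min at room temperature, read by SPA scintillation counting. Controls used 1% DMSO, and blanks omitted enzyme.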

[5] = tested on: hippocampal Shaffer collateral-CA1 synapses; conditions: for Basal synaptic transmission, change versus vehicle-treated control during baseline pre-tetanus: urethane-anesthetized rats, SC-CA1 fEPSP slope; for Enduring (>2 h) synaptic potentiation after HFS (fEPSP slope, % of pre-tetanus baseline): vehicle level 119±4%; for fEPSP slope at 0-30 min after completion of the tetanization: vehicle level 139±1%
PDE2A = target: T5, PDE2A (Rattus norvegicus, UniProt Q01062); assay: PDE2 occupancy by test compounds, ex-vivo autoradiography with [3H]B-17a; assay type: in vivo, Male Wistar rats; conditions: route PO (oral)
T5 construct: Twenty μm-thick striatal sections were cut; from tissue; host or cells: rat brain, striatal sections
T5 sequence (Q01062 1-928): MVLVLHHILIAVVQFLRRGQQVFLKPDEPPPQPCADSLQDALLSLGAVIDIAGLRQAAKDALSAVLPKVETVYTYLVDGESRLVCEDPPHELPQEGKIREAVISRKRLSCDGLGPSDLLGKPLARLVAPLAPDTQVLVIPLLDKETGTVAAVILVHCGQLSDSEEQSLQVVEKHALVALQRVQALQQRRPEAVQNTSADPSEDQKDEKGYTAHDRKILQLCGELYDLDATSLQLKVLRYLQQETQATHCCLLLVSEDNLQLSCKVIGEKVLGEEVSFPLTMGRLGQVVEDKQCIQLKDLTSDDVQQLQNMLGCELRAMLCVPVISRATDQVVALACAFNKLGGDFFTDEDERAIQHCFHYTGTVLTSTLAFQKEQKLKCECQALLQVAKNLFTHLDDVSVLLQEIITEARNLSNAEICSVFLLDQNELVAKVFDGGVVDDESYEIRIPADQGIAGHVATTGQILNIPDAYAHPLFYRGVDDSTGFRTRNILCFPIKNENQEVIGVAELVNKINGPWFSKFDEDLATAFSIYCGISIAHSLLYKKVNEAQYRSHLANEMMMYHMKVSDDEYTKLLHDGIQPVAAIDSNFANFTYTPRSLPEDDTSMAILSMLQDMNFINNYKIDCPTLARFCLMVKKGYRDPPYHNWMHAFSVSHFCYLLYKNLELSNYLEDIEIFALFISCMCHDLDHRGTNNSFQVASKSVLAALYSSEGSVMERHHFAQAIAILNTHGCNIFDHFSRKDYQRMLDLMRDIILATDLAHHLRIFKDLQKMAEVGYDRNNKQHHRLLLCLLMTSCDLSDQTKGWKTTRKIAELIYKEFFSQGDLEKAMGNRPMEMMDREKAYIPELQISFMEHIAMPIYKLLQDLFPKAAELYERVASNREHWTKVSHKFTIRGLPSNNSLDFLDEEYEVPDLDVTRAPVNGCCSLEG

[6] = human recombinant PDE2A, 10 μM cGMP substrate

CC(=O)N1CCc2cc(C(=O)N3CCC[C@@](C)(c4cc(C(F)F)nc5ncnn45)C3)ccc21 (single isomer, unassigned) [Compound 203]
melting point: 204.03 °C | IC50 [1, 6]: 955 nM | Emax ([1]; human recombinant PDE2A): 48% | Emax [1]: 48% | IC50 [1]: 955 nM | Emax ([2]; rat clone (r)): 14% | IC50 ([2]; rat clone (r)): > 10000 nM | rPDE10A2 pIC50 ([2]; rat clone, indicated as (r)): <5 (r) | IC50 [3]: > 10000 nM | Emax [3]: 41%

C[C@@H]1CCN(C(=O)c2ccc3nccn3c2)C[C@H]1c1cc(C(F)F)nc2ncnn12 [Compound 40]
melting point: 181.11 °C | Emax [4]: 97% | IC50 [4]: 123 nM | IC50 [1, 6]: 0.355 nM | Emax ([1]; human recombinant PDE2A): 101% | Emax [1]: 101% | IC50 [1]: 0.355 nM | rPDE10A2 pIC50 ([2]; rat clone (r)): 7.1 (r) | Emax ([2]; rat clone, indicated as (r)): 96% | IC50 ([2]; rat clone, indicated as (r)): 79.4 nM | IC50 [3]: 7080 nM | Emax [3]: 58%

C[C@@H]1CCN(C(=O)c2ccc3occc3c2)C[C@H]1c1cc(C(F)F)nc2ncnn12 [Compound 97]
Emax [4]: 101% | IC50 [4]: 53.7 nM | Emax ([2]; rat clone (r)): 99% | IC50 ([2]; rat clone (r)): 34.7 nM | rPDE10A2 pIC50 ([2]; rat clone, indicated as (r)): 7.46 (r)

COc1cc(C(=O)N2CC[C@@H](C)[C@H](c3cc(C(F)F)nc4ncnn34)C2)cc(C)n1 [Compound 110]
Basal synaptic transmission, change versus vehicle-treated control during baseline pre-tetanus ([5]; 20 mg/kg subcutaneous): +8% | Enduring (>2 h) synaptic potentiation after HFS (fEPSP slope, % of pre-tetanus baseline) ([5]; 20 mg/kg subcutaneous): 137±8% | fEPSP slope at 0-30 min after completion of the tetanization ([5]; 20 mg/kg subcutaneous, p<0.05): 153±5% | Basal synaptic transmission, change versus vehicle-treated control during baseline pre-tetanus ([5]; 40 mg/kg subcutaneous): 9% | fEPSP at 90-120 min after tetanization ([5]; 40 mg/kg subcutaneous, vehicle level 106±13%, p<0.05): 129±5% | fEPSP at 60-90 min after tetanization ([5]; 40 mg/kg subcutaneous, vehicle level 116±9, p<0.05): 137±5% | Enduring (>2 h) synaptic potentiation after HFS (fEPSP slope, % of pre-tetanus baseline) ([5]; 40 mg/kg subcutaneous): 142±5% | fEPSP at 30-60 min after tetanization ([5]; 40 mg/kg subcutaneous, vehicle level 125±6, p<0.05): 146±6% | fEPSP slope at 0-30 min after completion of the tetanization ([5]; 40 mg/kg subcutaneous, p<0.05): 155±4% | Overall effect on basal synaptic transmission and LTP in vivo ([5]; 20 and 40 mg/kg subcutaneous, anesthetized rats): facilitates basal synaptic transmission and LTP in vivo | Slope of the SC-CA1 path fEPSPs across the I/O curves (excitability of CA1 cells) ([5]; 20 and 40 mg/kg versus vehicle, FIG. 16b, c): No differences | receptor occupancy at 10 mg/kg (PDE2A; po, 10 mg/kg, percentage receptor occupancy, ex-vivo autoradiography, striatum): 75% | ED50 (PDE2A; drug dose producing 50% receptor occupancy, read-out: PDE Occupancy ED50): 8.3 mg/kg | Emax [4]: 98% | IC50 [4]: 72.4 nM and 112 nM | IC50 [1, 6]: 0.955 nM | Emax ([1]; human recombinant PDE2A): 101% | Emax [1]: 100% | IC50 [1]: 1.32 nM | IC50 [3]: 3390 nM | Emax [3]: 76%

CC1(c2cc(C(F)F)nc3ncnn23)CCCN(C(=O)c2ccc3occc3c2)C1 (stereo not shown) [Compound 201]
melting point: 140.14 °C | IC50 [1, 6]: 646 nM | Emax ([1]; human recombinant PDE2A): 61% | Emax [1]: 61% | IC50 [1]: 646 nM | Emax ([2]; rat clone (r)): -1% | IC50 ([2]; rat clone (r)): 3090 nM | rPDE10A2 pIC50 ([2]; rat clone, indicated as (r)): 5.51 (r) | IC50 [3]: > 10000 nM | Emax [3]: 24%

CC1(c2ccnc3ncnn23)CCCN(C(=O)c2ccc3occc3c2)C1 (stereo not shown) [Compound 202]
melting point: 78.65 °C | Emax [4]: 38% | IC50 [4]: > 10000 nM | IC50 [1, 6]: 2690 nM | Emax ([1]; human recombinant PDE2A): 30% | Emax [1]: 30% | IC50 [1]: 2690 nM | Emax ([2]; rat clone (r)): 4% | IC50 ([2]; rat clone (r)): > 10000 nM | rPDE10A2 pIC50 ([2]; rat clone, indicated as (r)): <5 (r) | IC50 [3]: > 10000 nM | Emax [3]: 18%
